The record followed here is patent US20090076136A1, “THERAPEUTIC AGENT” (priority 2003, published 2009).

What all share (type): cell-based
The test system of test [1] is mature adipocytes (3T3-L1 cells). Description: Synergistic enhancing action by polygodial and insulin on glucose uptake. To be noted: insulin 0.05 μg/mL alone; FIG. 21. The method, then:
The amount of 2-deoxyglucose uptake into mature adipocytes stimulated with the sample in the adipocytes was determined partly in accordance with the method described in Example 1 as the evaluation of synergistic enhancing action by a low-concentration polygodial and a low-concentration insulin on glucose uptake.
The mature adipocytes were prepared according to the method described in Example 1.
After the termination of the culture, the medium was removed, and the cells were washed twice with a Dulbecco's modified Eagle's medium containing 0.1% (w/v) bovine serum albumin. Thereafter, the cells were cultured at 37° C. overnight in the presence of 5% carbonic dioxide gas. After the overnight culture, the cells were washed twice with a HEPES buffered saline (140 mM NaCl, 5 mM KCl, 2.5 mM MgSO4, 1 mM CaCl2, 20 mM HEPES-Na (pH 7.4)). The amount 0.9 mL of the same buffer was added thereto. The cells were cultured at 37° C. for 45 minutes. Subsequently, polygodial was added thereto so as to have a final concentration of 300 nM, and insulin was added thereto so as to have a final concentration of 0.05 μg/mL. The cells were further cultured for 30 minutes. […] In addition, a group without addition of the sample was used as a negative control. Thereafter, the amount of 2-deoxy-[1,2-^3H(N)]-glucose taken into the adipocytes was determined in the same manner as in the method described in Example 1.

Test [2] has the same test system. Description: Enhancing action on glucose uptake: 2-deoxyglucose uptake into mature adipocytes. The note with it: positive control, final concentration 1 μg/mL. As to the method: The induction of differentiation into mature adipocytes was carried out by partially modifying the method of Rubin C. S. et al. (JBC. 253 7570-7578, 1978). 3T3-L1 cells (ATCC CCL-92.1) were suspended in a 10% calf serum (manufactured by ICN)-containing Dulbecco's modified Eagle's medium (manufactured by Sigma, D6046) containing 200 μM ascorbic acid so as to have a density of 4×10^3 cells/mL, and the suspension was put in each well of a 12-well microtiter plate in an amount of 2 mL per well. The cells were cultured at 37° C. for 7 days in the presence of 5% carbon dioxide gas. On the seventh day, the medium was exchanged with […] of a 10% fetal bovine serum (manufactured by GIBCO)-containing Dulbecco's modified Eagle's medium containing 200 μM ascorbic acid, 0.25 μM dexamethasone, 10 μg/mL insulin (manufactured by TAKARA BIO INC.) and 0.5 mM 3-isobutyl-1-methylxanthine (manufactured by Nacalai Tesque, Inc., 19624-86). After 45 hours, the medium was exchanged with 2 mL of a 10% fetal bovine serum-containing Dulbecco's modified Eagle's medium containing 200 μM ascorbic acid and 5 μg/mL insulin. The medium was exchanged on after 2 days and 5 days, and the cells were cultured for 7 days, to give mature adipocytes.
As the evaluation of enhancing action on glucose uptake, and also as the evaluation of insulin-mimetic action, the amount of 2-deoxyglucose uptake into mature adipocytes stimulated with the sample in the adipocytes was determined.
After the termination of the culture, the medium was removed, and the cells were washed twice with a 0.1% (w/v) bovine serum albumin (manufactured by Sigma, A8022)-containing Dulbecco's modified Eagle's medium. Thereafter, 1 mL of the same medium was put to each well. The cells were cultured overnight at 37° C. in the presence of 5% carbon dioxide gas. After the overnight culture, the cells were washed twice with a HEPES buffered saline (140 mM NaCl, 5 mM KCl, 2.5 mM MgSO4, 1 mM CaCl2, 20 mM HEPES-Na (pH 7.4)), and 0.9 mL of the same buffer was added thereto. The cells were cultured at 37° C. for 75 minutes. […] […] Thereafter, 100 μL of a HEPES buffered saline containing 2-deoxy-[1,2-^3H(N)]-glucose (manufactured by PerkinElmer Life Sciences Inc., NET549A) and 1 mM 2-deoxyglucose (manufactured by Nacalai Tesque, Inc., 10722-11) was added thereto at a final concentration of 0.5 μCi/mL, and the cells were further cultured at 37° C. for 10 minutes. After the termination of the culture, the supernatant was removed, the cells were washed three times with a phosphate buffer cooled to 4° C., and 0.5 mL of a 1% Nonidet P-40-containing phosphate buffer was added to lyse the cells, whereby 2-deoxy-[1,2-^3H(N)]-glucose taken into the cells was eluted. The radioactivity was determined with a liquid scintillation counter LS6500 (manufactured by Beckmann) using 25 μL of the supernatant with Ultima Gold (manufactured by PerkinElmer Life Sciences Inc., 6013329) as a scintillation cocktail.

In test [3] the test system is glucose transporter (mature adipocytes). Description: Influence of cytochalasin B on 2-deoxyglucose uptake in mature adipocytes. The note with it: insulin 1 μg/mL, without cytochalasin B; FIG. 22. The method, then:
Specifically, as a sample, there was set a group with addition of a dimethyl sulfoxide solution of polygodial so as to have a final concentration of 3 μM. […] Furthermore, in each group, there was set a group with addition of cytochalasin B (manufactured by Nacalai Tesque, Inc., 10435-81) so as to have a final concentration 40 μM at the same time as the time of addition of the sample and insulin. Thereafter, the amount of 2-deoxy-[1,2-^3H(N)]-glucose taken into the adipocytes was determined in the same manner.

For insulin, the “2-deoxy-[1,2-3H(N)]-glucose uptake compared to the negative control” value in test [1], in test [2] and in test [3] was “enhancement of 2-deoxy-[1,2-^3H(N)]-glucose uptake was found” in each case.
